For eleven compounds, IC50 results are on record in US20260242419A1, “A CYCLIC PEPTIDE FOR TRAPPING INTERLEUKIN-1 BETA” (Merck Sharp & Dohme LLC, priority 2023, published 2026).

Like-named read-outs stand apart in the source and are kept apart here. Starred links: 1 amine or outer side, 2 acyl side, 3 side chain; linkers in the order of their positions; H or OH if unused. Non-standard residues stand in square brackets, D forms with d. Residues, ends and D or L forms follow the SMILES beside them. dPro(4R-(4-pyridylmethyl)) = O=C(O)[C@H]1C[C@@H](Cc2ccncc2)CN1; Trp(βS-Me,4-F) = C[C@@H](c1c[nH]c2cccc(F)c12)[C@H](N)C(=O)O; 3Aminoazetidine3carboxyl = O=C(C1(N[*:1])CN([*:3])C1)[*:2]; Bip(4'-COOH) = N[C@@H](Cc1ccc(-c2ccc(C(=O)O)cc2)cc1)C(=O)O; X21 = O=C(O)c1ccc(-c2ccc(C[C@H](N[*:1])C(=O)[*:2])cn2)cc1; dPro(4R-Bzl(4-F)) = O=C(O)[C@H]1C[C@@H](Cc2ccc(F)cc2)CN1; X14 = O=C([C@H]1[C@@H](Cc2ccccc2)CCN1[*:1])[*:2]; Ala(morpholin-4-yl) = N[C@@H](CN1CCOCC1)C(=O)O; Ala(pyrimidin-5-yl) = N[C@@H](Cc1cncnc1)C(=O)O; Phe(4-COOH) = N[C@@H](Cc1ccc(C(=O)O)cc1)C(=O)O; Pro(cis-4-F) = O=C(O)[C@@H]1C[C@H](F)CN1; 4Pal = N[C@@H](Cc1ccncc1)C(=O)O; d(αMeS) = C[C@@](N)(CO)C(=O)O; αMeS = C[C@](N)(CO)C(=O)O; Dab = NCC[C@H](N)C(=O)O; Aib = CC(C)(N)C(=O)O

This assay has as its target T1, IL-1β (Homo sapiens, UniProt P01584).
T1 construct: purchased BioLegend 579404
The experiment in a line: IL-6 assay in MRC5 cells: inhibition of IL-1β induced IL-6 secretion (AlphaLISA). Type of assay: cell-based. The method, then:
Procedure for IL-6 Assay in MRC5 Cells
The inhibition of IL-1β induced IL-6 secretion was evaluated in MRC5 cells. Recombinant human IL-1β (BioLegend 579404) at 2λ EC80 concentration was prepared in seeding medium. EMEM (ATCC 30-2003) with 0.025% BSA (Sigma A9576), 1×penicillin/streptomycin (Gibco 15070-063), 1×NEAA (Gibco 11140-050), 1×GlutaMax (Gibco 35050-061), and 1×sodium pyruvate (Gibco 11360-070), 20 μL of IL-1β was added to a 384-well collagen-coated plate (Corning 354664) and pre-incubated at ambient temperature for 1 hour with 200 nL of compound dispensed using an ECHO 555 liquid handler. Human lung fibroblast MRC5 cells (ATCC CCL-171) were added at a density of 3000 cells/20 μL per well. The cells were prepared by passaging three times in growth medium, EMEM (ATCC 30-2003) with 10% fetal bovine serum (Gibco 16140-071), 1×penicillin/streptomycin (Gibco 15070-063), 1×NEAA (Gibco 11140-050), 1×GlutaMax (Gibco 35050-061), and 1×sodium pyruvate (Gibco 11360-070) in collagen-coated T175 flasks (Greiner 661950) and harvested in seeding medium after 5 minutes of 0.25% trypsin-EDTA (Gibco 25200-056) digestion. The 384-well collagen-coated plate, containing a final volume of 40 μL, was incubated at 37° C., 5% CO2 overnight. 5 μL of the conditioned medium was transferred to a 384-well AlphaLISA plate (PerkinElmer 6005350) for detection of IL-6 using the human AlphaLISA IL-6 kit (PerkinElmer AL223F) as per the manufacturer's protocol. 20 μL of the acceptor bead/biotinylated antibody mix was added to the 384-well AlphaLISA plate and incubated for 1 hour at ambient temperature. The donor bead mix was protected from light and 25 μL was added to the plate and incubated for 30 minutes at ambient temperature. The AlphaLISA plate was read on an EnVision multimode plate reader (Perkin Elmer model 2104) using the AlphaScreen setting (laser exc at 680 nm and emis at […]). Dose response curves and IC50 values were analyzed using a 4-parameter logistic equation in Spotfire software (Tibco, Palo Alto, CA).
(Alpha assays give light when donor and acceptor beads are brought close together.)

Where [1] appears, read: inhibition of IL-1β induced IL-6 secretion in MRC5 cells, read-out: MRC5 IC50.

T1 sequence (P01584 117-269): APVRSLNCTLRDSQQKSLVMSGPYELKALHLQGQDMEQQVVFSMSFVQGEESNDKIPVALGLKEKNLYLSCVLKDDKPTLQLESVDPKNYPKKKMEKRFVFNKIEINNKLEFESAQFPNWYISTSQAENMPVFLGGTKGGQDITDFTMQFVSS

Broadly, the IC50 is the concentration at which inhibition is half-maximal. As to `C[C@@H](c1c[nH]c2cccc(F)c12)[C@@H]1NC(=O)[C@@H]2C[C@H](F)CN2C(=O)CNC(=O)[C@H](Cc2ccc(C(=O)O)cc2)NC(=O)[C@H](Cc2ccncc2)NC(=O)[C@H](Cc2ccc(-c3ccc(C(=O)O)cc3)cc2)NC(=O)[C@H]2C[C@@H](Cc3ccncc3)CN2C(=O)CNC(=O)[C@H](CCN)NC(=O)[C@H](CCC(N)=O)NC(=O)[C@H](Cc2cncnc2)NC(=O)C(C)(C)NC(=O)[C@H](Cc2c[nH]c3ccccc23)NC(=O)[C@H](CCC(=O)O)NC(=O)C(C)(C)NC1=O` [Example 14] (cyclo([Bip(4'-COOH)][4Pal][Phe(4-COOH)]G[Pro(cis-4-F)][Trp(βS-Me,4-F)][Aib]EW[Aib][Ala(pyrimidin-5-yl)]Q[Dab]G[dPro(4R-(4-pyridylmethyl))])), under setting [1], the IC50 was determined as 35 pM.

Regarding `C[C@@H](c1c[nH]c2cccc(F)c12)[C@@H]1NC(=O)[C@@H]2C[C@H](F)CN2C(=O)CNC(=O)[C@H](Cc2ccc(C(=O)O)cc2)NC(=O)[C@H](Cc2ccncc2)NC(=O)[C@H](Cc2ccc(-c3ccc(C(=O)O)cc3)cc2)NC(=O)[C@H]2C[C@@H](Cc3ccncc3)CN2C(=O)CNC(=O)[C@H](CCN)NC(=O)[C@H](CCC(N)=O)NC(=O)[C@H](Cc2ccncc2)NC(=O)C(C)(C)NC(=O)[C@H](Cc2c[nH]c3ccccc23)NC(=O)[C@H](CCC(=O)O)NC(=O)C(C)(C)NC1=O` [Example 15] (cyclo([Bip(4'-COOH)][4Pal][Phe(4-COOH)]G[Pro(cis-4-F)][Trp(βS-Me,4-F)][Aib]EW[Aib][4Pal]Q[Dab]G[dPro(4R-(4-pyridylmethyl))])), under setting [1], the IC50 came out at 35 pM.

In the case of `C[C@@H](c1c[nH]c2cccc(F)c12)[C@@H]1NC(=O)[C@@H]2C[C@H](F)CN2C(=O)CNC(=O)[C@H](Cc2ccc(C(=O)O)cc2)NC(=O)[C@H](Cc2ccncc2)NC(=O)[C@H](Cc2ccc(-c3ccc(C(=O)O)cc3)cc2)NC(=O)[C@H]2C[C@@H](Cc3ccc(F)cc3)CN2C(=O)CNC(=O)[C@H](CCN)NC(=O)[C@H](CCC(N)=O)NC(=O)[C@H](Cc2cncnc2)NC(=O)C(C)(C)NC(=O)[C@H](Cc2c[nH]c3ccccc23)NC(=O)[C@H](CC(=O)O)NC(=O)C(C)(C)NC1=O` [Example 17] (cyclo([Bip(4'-COOH)][4Pal][Phe(4-COOH)]G[Pro(cis-4-F)][Trp(βS-Me,4-F)][Aib]DW[Aib][Ala(pyrimidin-5-yl)]Q[Dab]G[dPro(4R-Bzl(4-F))])), the IC50 under setting [1] stood at 29 pM.

For `C[C@@H](c1c[nH]c2cccc(F)c12)[C@@H]1NC(=O)[C@@H]2C[C@H](F)CN2C(=O)CNC(=O)[C@H](Cc2ccc(C(=O)O)cc2)NC(=O)[C@H](Cc2ccncc2)NC(=O)[C@H](Cc2ccc(-c3ccc(C(=O)O)cc3)cc2)NC(=O)[C@H]2C[C@@H](Cc3ccc(F)cc3)CN2C(=O)CNC(=O)[C@H](CCN)NC(=O)[C@H](CCC(N)=O)NC(=O)[C@H](Cc2cncnc2)NC(=O)[C@](C)(CO)NC(=O)[C@H](Cc2c[nH]c3ccccc23)NC(=O)[C@H](CCC(=O)O)NC(=O)C(C)(C)NC1=O` [Example 18] (cyclo([Bip(4'-COOH)][4Pal][Phe(4-COOH)]G[Pro(cis-4-F)][Trp(βS-Me,4-F)][Aib]EW[αMeS][Ala(pyrimidin-5-yl)]Q[Dab]G[dPro(4R-Bzl(4-F))])), the 50% inhibitory concentration (IC50) under setting [1] is 27 pM.

On to `C[C@@H](c1c[nH]c2cccc(F)c12)[C@@H]1NC(=O)[C@@H]2C[C@H](F)CN2C(=O)CNC(=O)[C@H](Cc2ccc(C(=O)O)cc2)NC(=O)[C@H](Cc2ccncc2)NC(=O)[C@H](Cc2ccc(-c3ccc(C(=O)O)cc3)cc2)NC(=O)[C@H]2C[C@@H](Cc3ccc(F)cc3)CN2C(=O)CNC(=O)[C@H](CCN)NC(=O)[C@H](CCC(N)=O)NC(=O)[C@H](Cc2cncnc2)NC(=O)C(C)(C)NC(=O)[C@H](Cc2c[nH]c3ccccc23)NC(=O)[C@H](CCC(=O)O)NC(=O)[C@@](C)(CO)NC1=O` [Example 19] (cyclo([Bip(4'-COOH)][4Pal][Phe(4-COOH)]G[Pro(cis-4-F)][Trp(βS-Me,4-F)][d(αMeS)]EW[Aib][Ala(pyrimidin-5-yl)]Q[Dab]G[dPro(4R-Bzl(4-F))])), for which, under setting [1], the IC50 was found to be 21 pM.

In the case of `C[C@@H](c1c[nH]c2cccc(F)c12)[C@@H]1NC(=O)[C@@H]2C[C@H](F)CN2C(=O)CNC(=O)[C@H](Cc2ccc(C(=O)O)cc2)NC(=O)[C@H](Cc2ccncc2)NC(=O)[C@H](Cc2ccc(-c3ccc(C(=O)O)cc3)cc2)NC(=O)[C@H]2C[C@@H](Cc3ccc(F)cc3)CN2C(=O)CNC(=O)[C@H](CCN)NC(=O)[C@H](CCC(N)=O)NC(=O)[C@H](Cc2cncnc2)NC(=O)C2(CNC2)NC(=O)[C@H](Cc2c[nH]c3ccccc23)NC(=O)[C@H](CCC(=O)O)NC(=O)C(C)(C)NC1=O` [Example 21] (cyclo([Bip(4'-COOH)][4Pal][Phe(4-COOH)]G[Pro(cis-4-F)][Trp(βS-Me,4-F)][Aib]EW[3Aminoazetidine3carboxyl][Ala(pyrimidin-5-yl)]Q[Dab]G[dPro(4R-Bzl(4-F))])), under setting [1], the IC50 came out at 40 pM.

As to `C[C@@H](c1c[nH]c2cccc(F)c12)[C@@H]1NC(=O)[C@@H]2C[C@H](F)CN2C(=O)CNC(=O)[C@H](Cc2ccc(C(=O)O)cc2)NC(=O)[C@H](Cc2ccncc2)NC(=O)[C@H](Cc2ccc(-c3ccc(C(=O)O)cc3)cc2)NC(=O)[C@H]2C[C@@H](Cc3ccc(F)cc3)CN2C(=O)CNC(=O)[C@H](CCN)NC(=O)[C@H](CCC(N)=O)NC(=O)[C@H](Cc2cncnc2)NC(=O)C(C)(C)NC(=O)[C@H](Cc2c[nH]c3ccccc23)NC(=O)[C@H](CCC(=O)O)NC(=O)[C@](C)(CO)NC1=O` [Example 22] (cyclo([4Pal][Phe(4-COOH)]G[Pro(cis-4-F)][Trp(βS-Me,4-F)][αMeS]EW[Aib][Ala(pyrimidin-5-yl)]Q[Dab]G[dPro(4R-Bzl(4-F))][Bip(4'-COOH)])), the IC50 amounted to 27 pM.

`C[C@@H](c1c[nH]c2cccc(F)c12)[C@@H]1NC(=O)[C@@H]2C[C@H](F)CN2C(=O)CNC(=O)[C@H](Cc2ccc(C(=O)O)cc2)NC(=O)[C@H](Cc2ccncc2)NC(=O)[C@H](Cc2ccc(-c3ccc(C(=O)O)cc3)cc2)NC(=O)[C@H]2C[C@@H](Cc3ccc(F)cc3)CN2C(=O)CNC(=O)[C@H](CCN)NC(=O)[C@H](CCC(N)=O)NC(=O)[C@H](Cc2cncnc2)NC(=O)[C@@](C)(CO)NC(=O)[C@H](Cc2c[nH]c3ccccc23)NC(=O)[C@H](CCC(=O)O)NC(=O)C(C)(C)NC1=O` [Example 23] (cyclo([Bip(4'-COOH)][4Pal][Phe(4-COOH)]G[Pro(cis-4-F)][Trp(βS-Me,4-F)][Aib]EW[d(αMeS)][Ala(pyrimidin-5-yl)]Q[Dab]G[dPro(4R-Bzl(4-F))])): the IC50 under setting [1] turned out to be 18 pM.

In the case of `C[C@@H](c1c[nH]c2cccc(F)c12)[C@@H]1NC(=O)[C@@H]2C[C@H](F)CN2C(=O)CNC(=O)[C@H](Cc2ccc(C(=O)O)cc2)NC(=O)[C@H](Cc2ccncc2)NC(=O)[C@H](Cc2ccc(-c3ccc(C(=O)O)cc3)cc2)NC(=O)[C@H]2C[C@@H](Cc3ccc(F)cc3)CN2C(=O)CNC(=O)[C@H](CN2CCOCC2)NC(=O)[C@H](CCC(N)=O)NC(=O)[C@H](Cc2cncnc2)NC(=O)C(C)(C)NC(=O)[C@H](Cc2c[nH]c3ccccc23)NC(=O)[C@H](CCC(=O)O)NC(=O)C(C)(C)NC1=O` [Example 24] (cyclo([Bip(4'-COOH)][4Pal][Phe(4-COOH)]G[Pro(cis-4-F)][Trp(βS-Me,4-F)][Aib]EW[Aib][Ala(pyrimidin-5-yl)]Q[Ala(morpholin-4-yl)]G[dPro(4R-Bzl(4-F))])), the IC50 under setting [1] came out at 49 pM.

In the case of `C[C@@H](c1c[nH]c2cccc(F)c12)[C@@H]1NC(=O)[C@@H]2C[C@H](F)CN2C(=O)CNC(=O)[C@H](Cc2ccc(C(=O)O)cc2)NC(=O)[C@H](Cc2ccncc2)NC(=O)[C@H](Cc2ccc(-c3ccc(C(=O)O)cc3)nc2)NC(=O)[C@H]2C[C@@H](Cc3ccc(F)cc3)CN2C(=O)CNC(=O)[C@H](CCN)NC(=O)[C@H](CCC(N)=O)NC(=O)[C@H](Cc2cncnc2)NC(=O)C(C)(C)NC(=O)[C@H](Cc2c[nH]c3ccccc23)NC(=O)[C@H](CCC(=O)O)NC(=O)C(C)(C)NC1=O` [Example 26] (cyclo([X21][4Pal][Phe(4-COOH)]G[Pro(cis-4-F)][Trp(βS-Me,4-F)][Aib]EW[Aib][Ala(pyrimidin-5-yl)]Q[Dab]G[dPro(4R-Bzl(4-F))])), under setting [1], the IC50 came to 35 pM.

Consider `C[C@@H](c1c[nH]c2cccc(F)c12)[C@@H]1NC(=O)[C@@H]2C[C@H](F)CN2C(=O)CNC(=O)[C@H](Cc2ccc(C(=O)O)cc2)NC(=O)[C@H](Cc2ccncc2)NC(=O)[C@H](Cc2ccc(-c3ccc(C(=O)O)cc3)cc2)NC(=O)[C@H]2[C@@H](Cc3ccccc3)CCN2C(=O)CNC(=O)[C@H](CO)NC(=O)[C@H](CCC(N)=O)NC(=O)[C@H](Cc2cncnc2)NC(=O)C(C)(C)NC(=O)[C@H](Cc2c[nH]c3ccccc23)NC(=O)[C@H](CCC(=O)O)NC(=O)C(C)(C)NC1=O` [Example 28] (cyclo([Bip(4'-COOH)][4Pal][Phe(4-COOH)]G[Pro(cis-4-F)][Trp(βS-Me,4-F)][Aib]EW[Aib][Ala(pyrimidin-5-yl)]QSG[X14])), for which, under setting [1], the IC50 was found to be 23 pM.
